In US11203636B2, “Treatment of existing left ventricular heart failure” (YALE UNIVERSITY, priority 2017, dated 2021):

Assays:
[1] = system: NKCC2, ENaC-beta, and NCC proteins in mouse M1 CCD cell line; test: Expression of NKCC2, ENaC-beta and NCC in M1 CCD cells after treatment with IL-6 and/or Spironolactone (immunoblotting); format: cell-based; settings: FIGS. 5A-5C
Method: (§1) The mouse M1 CCD cell line (American Type Culture Collection (ATCC), Cat #CRL-2038) was maintained the cell culture medium containing equal amount of DMEM (Sigma-Aldrich, Cat #D6046) and Han F12 (Sigma-Aldrich, Cat #11765-047), supplemented with 5% Fetal Bovine Serum (FBS), 1% Penicillin-Streptomycin (Thermo Fisher Scientific, Cat #15140-122), 1% Insulin-Transferrin-Selenium (Thermo Fisher Scientific, Cat #51500-056) and 100 nM Dexamethasone (Sigma-Aldrich, Cat #D4902-100MG).
(§2) M1 CCD cells were seeded at 1 million/well in 6-well plate in the cell culture medium, and incubated overnight in a 37° C., 5% CO2 incubator on Day 0. The cell culture medium was changed to DMEM/F12 serum-free medium on Day 1 and the cells were incubated overnight in a 37° C., 5% CO2 incubator. On Day 2, the serum-free medium was removed and the cell culture medium was added to each well. Spironolactone (Selleckchem, Cat #54054) was added at the final concentration of 1 μM or 100 μM 10 min before the addition of IL-6 (Sigma-Aldrich, Cat #SRP3096-20UG) at the final concentration of 10 ng/mL, 100 ng/mL, or 500 ng/mL. A control well without Spironolactone or IL-6 was included. […] The sample were analyzed by immunoblotting using anti-NKCC2 antibody (Millipore, Cat #AB3562P), anti-ENaC-beta antibody (Millipore, Cat #AB3532P), or anti-NCC antibody (Millipore, Cat #AB3553) and the protein expression was quantified. […]

[2] = system: NKCC2, ENaC-beta, and NCC proteins in mouse M1 CCD cell line; test: Expression of NKCC2, ENaC-beta and NCC in M1 CCD cells after treatment with IL-6 and/or Ruxolitinib (immunoblotting); format: cell-based; settings: IL-6 10, 100 or 500 ng/mL, 24 hours, FIGS. 4A-4C
Method: as §1
as §2, with “Ruxolitinib” for “Spironolactone”, “#51378)” for “#54054)”

Row | Molecule | effect of Spironolactone on the IL-6 effect on ion transporter proteins (NKCC2, ENaC-beta, NCC) ([1]; Spironolactone 1 μM or 100 μM added 10 min before IL-6, 24 hours) | expression of NKCC2, ENaC-beta, and NCC after treatment of IL-6 ([1]; IL-6 10, 100 or 500 ng/mL, 24 hours, immunoblotting) | expression of NKCC2, ENaC-beta, and NCC after treatment of IL-6 [2]
1 | CC(=O)S[C@@H]1CC2=CC(=O)CC[C@]2(C)[C@H]2CC[C@@]3(C)[C@@H](CC[C@@]34CCC(=O)O4)[C@H]12 [Spironolactone] | blocked the effect of IL-6 on the ion transporter proteins | – | –
2 | IL-6: pro-inflammatory cytokine added to cells (Sigma-Aldrich, Cat #SRP3096-20UG) | – | increased the expression of NKCC2, ENaC-beta, and NCC | increased the expression of NKCC2, ENaC-beta, and NCC
